Reference: US20180055032A1, “ODORS FOR PSYLLID TRAPPING, REPELLING AND CONTROL” (The Regents of the University of California, priority 2011, published 2018)
Read-outs that look alike come from different tables or passages of the source.

Columns and labels:
Assay type in all cases: cell-based, Diaphorina citri
[1] = system: neuron 7C (rhinarial plate on flagellomere 7); experiment: single-sensillum electrophysiology, odor response of neuron 7C; conditions: for odor response (frequency of action potentials during stimulus minus baseline), 7C: Table 1, odor diluted to 1%, 50 μL in cartridge; as to response to inhibitory odors, 7C: key: 0, no response; +, >50 spikes/second; ++, >100 spikes/second; +++, >150 spikes/second
[2] = system: neuron 2C (rhinarial plate on flagellomere 2); experiment: single-sensillum electrophysiology, odor response of neuron 2C; conditions: for response to inhibitory odors, 2C: Table 2, odor diluted to 10^−2, 50 μL in cartridge; for odor response (frequency of action potentials during stimulus minus baseline), 2C: Table 1, odor diluted to 1%, 50 μL in cartridge
[3] = system: neuron 7B (rhinarial plate on flagellomere 7); conditions: for odor response (frequency of action potentials during stimulus minus baseline), 7B: Table 1, odor diluted to 1%, 50 μL in cartridge
[4] = system: neuron 4C (rhinarial plate on flagellomere 4); experiment: single-sensillum electrophysiology, odor response of neuron 4C; conditions: Table 2; odor diluted to 10^−2, 50 μL in cartridge; also: key: 0, no response; +, >50 spikes/second; ++, >100 spikes/second; +++, >150 spikes/second
[5] = system: neuron 4A (rhinarial plate on flagellomere 4); experiment: single-sensillum electrophysiology, odor response of neuron 4A; conditions: for response to inhibitory odors, 4A: Table 2, odor diluted to 10^−2, 50 μL in cartridge; for odor response (frequency of action potentials during stimulus minus baseline), 4A: Table 1, odor diluted to 1%, 50 μL in cartridge
[6] = system: neuron 6C (rhinarial plate on flagellomere 6); experiment: single-sensillum electrophysiology, odor response of neuron 6C; conditions: for response to inhibitory odors, 6C: Table 2, odor diluted to 10^−2, 50 μL in cartridge; for odor response (frequency of action potentials during stimulus minus baseline), 6C: Table 1, odor diluted to 1%, 50 μL in cartridge
[7] = system: neuron 6B (rhinarial plate on flagellomere 6); experiment: single-sensillum electrophysiology, odor response of neuron 6B; conditions: for response to inhibitory odors, 6B: Table 2, odor diluted to 10^−2, 50 μL in cartridge; for odor response (frequency of action potentials during stimulus minus baseline), 6B: Table 1, odor diluted to 1%, 50 μL in cartridge
[8] = system: neuron 6A (rhinarial plate on flagellomere 6); experiment: single-sensillum electrophysiology, odor response of neuron 6A; conditions: for response to inhibitory odors, 6A: Table 2, odor diluted to 10^−2, 50 μL in cartridge; for odor response (frequency of action potentials during stimulus minus baseline), 6A: Table 1, odor diluted to 1%, 50 μL in cartridge
[9] = system: neuron 4B (rhinarial plate on flagellomere 4); conditions: for odor response (frequency of action potentials during stimulus minus baseline), 4B: Table 1, odor diluted to 1%, 50 μL in cartridge
[10] = system: neuron 7A (rhinarial plate on flagellomere 7); experiment: single-sensillum electrophysiology, odor response of neuron 7A; conditions: for response to inhibitory odors, 7A: Table 2, odor diluted to 10^−2, 50 μL in cartridge; for odor response (frequency of action potentials during stimulus minus baseline), 7A: Table 1, odor diluted to 1%, 50 μL in cartridge; as to all read-outs here: key: 0, no response; +, >50 spikes/second; ++, >100 spikes/second; +++, >150 spikes/second
[11] = system: neuron 2A (rhinarial plate on flagellomere 2); experiment: single-sensillum electrophysiology, odor response of neuron 2A; conditions: for response to inhibitory odors, 2A: Table 2, odor diluted to 10^−2, 50 μL in cartridge; for odor response (frequency of action potentials during stimulus minus baseline), 2A: Table 1, odor diluted to 1%, 50 μL in cartridge; as to all read-outs here: key: 0, no response; +, >50 spikes/second; ++, >100 spikes/second; +++, >150 spikes/second
[12] = system: neuron 2B (rhinarial plate on flagellomere 2); experiment: single-sensillum electrophysiology, odor response of neuron 2B; conditions: for odor response (frequency of action potentials during stimulus minus baseline), 2B: Table 1, odor diluted to 1%, 50 μL in cartridge; for response to inhibitory odors, 2B: Table 2, odor diluted to 10^−2, 50 μL in cartridge
[13] = Table 2, odor diluted to 10^−2, 50 μL in cartridge

SMILES | response to inhibitory odors, 2C [2] | response to inhibitory odors, 7B [3, 13] | response to inhibitory odors, 4C [4] | response to inhibitory odors, 4A [5] | response to inhibitory odors, 6C [6] | response to inhibitory odors, 6B [7] | response to inhibitory odors, 6A [8] | response to inhibitory odors, 4B [9, 13] | response to inhibitory odors, 7A [10] | response to inhibitory odors, 2A [11] | response to inhibitory odors, 2B [12] | other results
CC(=O)C(C)=O [2,3-butanedione] | 0 | 0 | 0 | 0 | 0 | 0 | 0 | 0 | 0 | 0 | – | response to inhibitory odors, 7C [1, 13]: 0
CC1=CC[C@H]2C[C@@H]1C2(C)C [(−)-α-pinene] | – | – | – | – | – | – | – | – | – | – | – | odor response (frequency of action potentials during stimulus minus baseline), 7C [1]: 0; odor response (frequency of action potentials during stimulus minus baseline), 2C [2]: 0; odor response (frequency of action potentials during stimulus minus baseline), 7B [3]: 0; odor response (frequency of action potentials during stimulus minus baseline), 4A [5]: 0; odor response (frequency of action potentials during stimulus minus baseline), 6C [6]: 0; odor response (frequency of action potentials during stimulus minus baseline), 6B [7]: + (+, >50 spikes/second); odor response (frequency of action potentials during stimulus minus baseline), 6A [8]: 0; odor response (frequency of action potentials during stimulus minus baseline), 4B [9]: + (+, >50 spikes/second); odor response (frequency of action potentials during stimulus minus baseline), 7A [10]: 0; odor response (frequency of action potentials during stimulus minus baseline), 2B [12]: 0; odor response (frequency of action potentials during stimulus minus baseline), 2A [11]: 0
C=C1CC[C@H]2C[C@@H]1C2(C)C [(−)-β-pinene] | – | – | – | – | – | – | – | – | – | – | – | odor response (frequency of action potentials during stimulus minus baseline), 7C [1]: 0; odor response (frequency of action potentials during stimulus minus baseline), 2C [2]: 0; odor response (frequency of action potentials during stimulus minus baseline), 7B [3]: 0; odor response (frequency of action potentials during stimulus minus baseline), 4A [5]: 0; odor response (frequency of action potentials during stimulus minus baseline), 6C [6]: 0; odor response (frequency of action potentials during stimulus minus baseline), 6B [7]: + (+, >50 spikes/second); odor response (frequency of action potentials during stimulus minus baseline), 6A [8]: 0; odor response (frequency of action potentials during stimulus minus baseline), 4B [9]: + (+, >50 spikes/second); odor response (frequency of action potentials during stimulus minus baseline), 7A [10]: 0; odor response (frequency of action potentials during stimulus minus baseline), 2B [12]: 0; odor response (frequency of action potentials during stimulus minus baseline), 2A [11]: 0
CN1CCCCC1 [N-methylpiperidine] | 0 | 0 | 0 | 0 | 0 | 0 | 0 | 0 | 0 | 0 | 0 | –
CC(=O)O [acetic acid] | 0 | – | 0 | 0 | 0 | – | 0 | – | 0 | 0 | 0 | response to inhibitory odors, 7B [3]: 0
CNC [dimethyl amine] | 0 | – | 0 | 0 | – | 0 | 0 | – | 0 | 0 | 0 | response to inhibitory odors, 7B [3]: 0; response to inhibitory odors, 4B [9]: 0
CCCCCC(=O)OCC [ethyl hexanoate] | 0 | 0 | 0 | 0 | 0 | 0 | 0 | 0 | 0 | 0 | 0 | –
